US10670605B2, “Cysteine reactive probes and uses thereof” (The Scripps Research Institute, priority 2015, dated 2020)

Columns and labels:
Assay in all cases: Competitive isoTOP-ABPP, cell lysates
Type in all cases: binding
Settings in all cases: 500 μm, in-vitro_ramos_231
XPO1 C34 (O14980) = XPO1 C34 (O14980) (Homo sapiens, UniProt O14980)
Description: (§1) TEV digests were pressure loaded onto a 250 μm (inner diameter) fused silica capillary column packed with C18 resin (Aqua 5 μm, Phenomenex). The samples were analyzed by multidimensional liquid chromatography tandem mass spectrometry (MudPIT), using an LTQ-Velos Orbitrap mass spectrometer (Thermo Scientific) coupled to an Agilent 1200-series quaternary pump. The peptides were eluted onto a biphasic column with a 5 μm tip (100 μm fused silica, packed with C18 (10 cm) and bulk strong cation exchange resin (3 cm, SCX, Phenomenex,)) in a 5-step MudPIT experiment, using 0%, 30%, 60%, 90%, and 100% salt bumps of 500 mM aqueous ammonium acetate and using a gradient of 5-100% buffer B in buffer A (buffer A: 95% water, 5% acetonitrile, 0.1% formic acid; buffer B: 5% water, 95% acetonitrile, 0.1% formic acid) as has been described in Weerapana et al. Nat Protoc 2:1414-1425 (2007). Data was collected in data-dependent acquisition mode with dynamic exclusion enabled (20 s, repeat of 2). One full MS (MS1) scan (400-1800 m/z) was followed by 30 MS2 scans (ITMS) of the nth most abundant ions.
(§2) The ratios of heavy/light for each unique peptide (DMSO/compound treated; isoTOP-ABPP ratios, R values) were quantified with in-house CIMAGE software, using default parameters (3 ms s per peak and signal to noise threshold 2.5). Site-specific engagement of electrophilic fragments was assessed by blockade of IA-alkyne probe labeling. […] Ratios for unique peptide entries were calculated for each experiment; overlapping peptides with the same modified cysteine (e.g. different charge states, MudPIT chromatographic steps or tryptic termini) were grouped together and the median ratio was reported as the final ratio (R). The peptide ratios reported by CIMAGE were further filtered to ensure the removal or correction of low quality ratios in each individual dataset. The quality filters applied were the following: removal of half tryptic peptides; for ratios with high standard deviations from the median (90% of the median or above) the lowest ratio was taken instead of the median; removal of peptides with R=20 and only a single ms2 event triggered during the elution of the parent ion; manual annotation of all the peptides with ratios of 20, removing any peptides with low-quality elution profiles that remained after the previous curation steps. Proteome reactivity values for individual fragments were computed as the percentage of the total quantified cysteine-containing peptides with R values≥4 (defined as liganded cysteines) for each replicate experiment and the final proteome reactivity value was calculated as the mean for all replicate experiments for each fragment from both MDA-MB-231 and Ramos cellular proteomes.
(§3) Biological replicates of the same compound and cell-line were averaged if the standard deviation was below 60% of the mean; otherwise the lowest value of the ratio set was taken.

IDH1 C269 (O75874) = IDH1 C269 (O75874) (Homo sapiens, UniProt O75874)
Description: as §1, §2, §3

GNB2L1 C182 (P63244) = GNB2L1 C182 (P63244) (Homo sapiens, UniProt P63244)
Description: as §1, §2, §3

GSTP1 C48 (P09211) = GSTP1 C48 (P09211) (Homo sapiens, UniProt P09211)
Description: as §1, §2, §3

PRMT1 C109 (Q99873) = PRMT1 C109 (Q99873) (Homo sapiens, UniProt Q99873)
Description: as §1, §2, §3

IDH2 C308 (P48735) = molecular target: T1, IDH2 C308 (P48735) (Homo sapiens, UniProt P48735)
T1 sequence (P48735 40-452): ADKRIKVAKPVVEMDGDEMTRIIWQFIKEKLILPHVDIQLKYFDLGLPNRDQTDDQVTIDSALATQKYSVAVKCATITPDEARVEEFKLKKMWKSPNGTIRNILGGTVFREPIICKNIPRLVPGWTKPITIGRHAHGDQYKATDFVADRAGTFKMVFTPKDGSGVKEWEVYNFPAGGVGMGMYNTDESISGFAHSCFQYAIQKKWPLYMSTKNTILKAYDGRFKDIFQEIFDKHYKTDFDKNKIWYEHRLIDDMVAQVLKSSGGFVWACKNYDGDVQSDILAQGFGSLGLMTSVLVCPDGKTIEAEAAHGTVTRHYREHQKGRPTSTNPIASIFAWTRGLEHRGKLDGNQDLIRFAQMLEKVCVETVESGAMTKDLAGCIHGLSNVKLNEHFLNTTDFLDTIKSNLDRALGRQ
Description: as §1, §2, §3

ACAT1 C119 (P24752) = molecular target: T2, ACAT1 C119 (P24752) (Homo sapiens, UniProt P24752)
T2 sequence (P24752 34-427): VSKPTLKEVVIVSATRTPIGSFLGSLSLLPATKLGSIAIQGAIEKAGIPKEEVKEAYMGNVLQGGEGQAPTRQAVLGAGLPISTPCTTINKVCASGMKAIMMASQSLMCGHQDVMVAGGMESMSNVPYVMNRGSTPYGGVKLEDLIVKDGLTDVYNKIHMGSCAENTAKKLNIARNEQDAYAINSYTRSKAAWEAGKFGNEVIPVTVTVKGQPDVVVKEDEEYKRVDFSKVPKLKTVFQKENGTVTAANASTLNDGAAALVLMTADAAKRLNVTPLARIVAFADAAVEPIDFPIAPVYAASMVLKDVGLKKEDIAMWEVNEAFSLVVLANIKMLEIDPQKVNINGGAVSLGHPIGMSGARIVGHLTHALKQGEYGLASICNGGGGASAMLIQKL

ACAT1 C413 (P24752) = molecular target: T3, ACAT1 C413 (P24752) (Homo sapiens, UniProt P24752)
T3 sequence (P24752 34-427): T2 sequence (P24752 34-427)

ACAT1 C196 (P24752) = molecular target: T4, ACAT1 C196 (P24752) (Homo sapiens, UniProt P24752)
T4 sequence (P24752 34-427): T2 sequence (P24752 34-427)

Sequence of PRMT1 C109 (Q99873) (Q99873 whole entry): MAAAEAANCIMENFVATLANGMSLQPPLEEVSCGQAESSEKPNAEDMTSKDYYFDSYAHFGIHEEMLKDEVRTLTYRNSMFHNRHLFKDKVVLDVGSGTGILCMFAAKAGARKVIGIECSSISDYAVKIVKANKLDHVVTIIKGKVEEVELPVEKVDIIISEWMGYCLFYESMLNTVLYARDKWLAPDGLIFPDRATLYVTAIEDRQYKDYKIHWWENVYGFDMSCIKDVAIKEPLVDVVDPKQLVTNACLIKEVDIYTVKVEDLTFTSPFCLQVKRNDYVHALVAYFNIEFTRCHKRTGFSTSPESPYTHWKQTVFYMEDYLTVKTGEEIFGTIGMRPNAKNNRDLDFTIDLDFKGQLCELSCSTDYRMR
Sequence of XPO1 C34 (O14980) (O14980 whole entry, the tested form may be a part): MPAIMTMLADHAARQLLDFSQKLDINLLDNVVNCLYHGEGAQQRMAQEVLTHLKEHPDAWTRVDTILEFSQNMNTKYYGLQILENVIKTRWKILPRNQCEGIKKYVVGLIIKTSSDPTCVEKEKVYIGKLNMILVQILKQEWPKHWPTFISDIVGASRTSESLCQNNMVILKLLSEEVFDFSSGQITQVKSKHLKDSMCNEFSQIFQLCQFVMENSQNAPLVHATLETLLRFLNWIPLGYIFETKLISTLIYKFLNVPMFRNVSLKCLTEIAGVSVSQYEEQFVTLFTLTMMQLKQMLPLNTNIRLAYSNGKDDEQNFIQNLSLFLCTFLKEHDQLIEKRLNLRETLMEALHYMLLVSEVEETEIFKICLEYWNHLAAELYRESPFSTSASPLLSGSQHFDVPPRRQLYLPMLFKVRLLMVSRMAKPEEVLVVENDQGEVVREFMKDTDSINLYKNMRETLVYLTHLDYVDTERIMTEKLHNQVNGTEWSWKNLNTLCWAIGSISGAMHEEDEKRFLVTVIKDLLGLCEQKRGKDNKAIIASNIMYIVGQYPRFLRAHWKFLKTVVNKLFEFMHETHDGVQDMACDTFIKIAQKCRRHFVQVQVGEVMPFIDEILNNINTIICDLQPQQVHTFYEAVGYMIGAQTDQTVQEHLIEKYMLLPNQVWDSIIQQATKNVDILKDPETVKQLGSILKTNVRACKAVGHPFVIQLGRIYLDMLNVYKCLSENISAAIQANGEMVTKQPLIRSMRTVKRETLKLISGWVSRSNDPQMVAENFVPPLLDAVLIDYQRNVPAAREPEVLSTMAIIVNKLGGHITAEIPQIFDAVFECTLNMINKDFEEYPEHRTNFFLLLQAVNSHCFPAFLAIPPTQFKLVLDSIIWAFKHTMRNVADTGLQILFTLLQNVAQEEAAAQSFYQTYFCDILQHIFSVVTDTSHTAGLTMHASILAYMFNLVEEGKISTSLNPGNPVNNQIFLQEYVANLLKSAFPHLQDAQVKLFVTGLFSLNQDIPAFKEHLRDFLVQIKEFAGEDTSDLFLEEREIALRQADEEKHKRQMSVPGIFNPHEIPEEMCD
Sequence of GSTP1 C48 (P09211) (P09211 whole entry): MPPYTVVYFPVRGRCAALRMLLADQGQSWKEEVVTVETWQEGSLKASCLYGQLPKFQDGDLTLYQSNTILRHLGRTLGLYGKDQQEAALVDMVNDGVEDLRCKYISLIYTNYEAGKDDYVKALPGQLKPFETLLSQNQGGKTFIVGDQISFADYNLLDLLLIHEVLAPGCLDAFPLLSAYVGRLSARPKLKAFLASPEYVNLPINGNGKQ
Sequence of IDH1 C269 (O75874) (O75874 whole entry): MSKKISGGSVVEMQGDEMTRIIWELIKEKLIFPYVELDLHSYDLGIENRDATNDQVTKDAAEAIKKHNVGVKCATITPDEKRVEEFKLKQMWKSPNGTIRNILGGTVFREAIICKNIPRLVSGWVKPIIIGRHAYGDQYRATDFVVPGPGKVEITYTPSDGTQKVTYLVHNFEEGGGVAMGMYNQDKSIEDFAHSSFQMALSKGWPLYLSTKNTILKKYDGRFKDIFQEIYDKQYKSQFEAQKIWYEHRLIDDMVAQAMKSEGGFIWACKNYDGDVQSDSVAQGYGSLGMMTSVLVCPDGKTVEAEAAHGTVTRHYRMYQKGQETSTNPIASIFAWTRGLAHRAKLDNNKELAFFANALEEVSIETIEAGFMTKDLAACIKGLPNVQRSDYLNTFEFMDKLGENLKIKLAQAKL

O=C(CCl)Nc1cc(C(=O)O)cc(C(F)(F)F)c1 [compound 36]
isoTOP-ABPP reactivity ratio, O14980_C34 (XPO1 C34 (O14980)): 1.3
isoTOP-ABPP reactivity ratio, O75874_C269 (IDH1 C269 (O75874)): 1.7
isoTOP-ABPP reactivity ratio, P63244_C182 (GNB2L1 C182 (P63244)): 1.3
isoTOP-ABPP reactivity ratio, P09211_C48 (GSTP1 C48 (P09211)): 1.6
isoTOP-ABPP reactivity ratio, Q99873_C109 (PRMT1 C109 (Q99873)): 1.0
isoTOP-ABPP reactivity ratio, P48735_C308 (IDH2 C308 (P48735)): 1.3
isoTOP-ABPP reactivity ratio, P24752_C119 (ACAT1 C119 (P24752)): 1.2
isoTOP-ABPP reactivity ratio, P24752_C413 (ACAT1 C413 (P24752)): 2.7
isoTOP-ABPP reactivity ratio, P24752_C196 (ACAT1 C196 (P24752)): 1.5
